Source: the supplement of paper PMC11061612

Assays:
Assay in all cases: combination Emax (second highest fraction inhibited in the dose matrix, 72 h); higher = more inhibition; extreme values may be limits of the assay
[1] = tested on: AN3-CA (Endometrial Carcinoma)
In short: (§1)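 Bliss excess equals the observed combination effect minus the expected value EA + EB − EA·EB, where EA and EB are the effects of each agent alone. Combination Emax is the second-highest inhibition within the matrix. Inhibition was scaled from CellTiter-Glo 2.0 luminescence, with 0 set by vehicle wells and 1 by blank wells, after 72 hours of two-drug dosing of cells plated in 1536-well plates.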

[2] = tested on: BALL-1 (B-Lymphoblastic Leukemia)
In short: as §1

[3] = tested on: Becker (Low Grade Glioma)
In short: as §1

CHL-1 (Melanoma) = tested on: CHL-1 (Melanoma)
In short: as §1

[4] = tested on: CML-T1 (Chronic Myelogenous Leukemia)
In short: as §1

[5] = tested on: COLO-684 (Endometrial Carcinoma)
In short: as §1

[6] = tested on: Calu-6 (Non-Small Cell Lung Carcinoma)
In short: as §1

[7] = tested on: EB-3 (Burkitt's Lymphoma)
In short: as §1

ES-2 (Ovarian Carcinoma) = tested on: ES-2 (Ovarian Carcinoma)
In short: as §1

[8] = tested on: FLO-1 (Esophageal Adenocarcinoma)
In short: as §1

[9] = tested on: HSC-3 (Oral Cavity Carcinoma)
In short: as §1

KYM-1 (Rhabdomyosarcoma) = tested on: KYM-1 (Rhabdomyosarcoma)
In short: as §1

[10] = tested on: NCI-H1563 (Lung Adenocarcinoma)
In short: as §1

[11] = tested on: NCI-H1623 (Lung Adenocarcinoma)
In short: as §1

[12] = tested on: NCI-H1755 (Lung Adenocarcinoma)
In short: as §1

[13] = tested on: RPMI-8866 (Chronic Myelogenous Leukemia)
In short: as §1

RT4 (Bladder Carcinoma) = tested on: RT4 (Bladder Carcinoma)
In short: as §1

[14] = tested on: SJRH30 (Rhabdomyosarcoma)
In short: as §1

[15] = tested on: SNU-175 (Colorectal Carcinoma)
In short: as §1

[16] = tested on: SW684 (Other Solid Carcinomas)
In short: as §1

Structure (SMILES) | combination Emax [1] | combination Emax [2] | combination Emax [3] | combination Emax (CHL-1 (Melanoma)) | combination Emax [4] | combination Emax [5] | combination Emax [6] | combination Emax [7] | combination Emax (ES-2 (Ovarian Carcinoma)) | combination Emax [8] | combination Emax [9] | combination Emax (KYM-1 (Rhabdomyosarcoma)) | combination Emax [10] | combination Emax [11] | combination Emax [12] | combination Emax [13] | combination Emax (RT4 (Bladder Carcinoma)) | combination Emax [14] | combination Emax [15] | combination Emax [16]
COc1nnc2ccc(N3CCC(c4ccc(OCCN5CCN(C)C(=O)[C@H]5C)cc4)CC3)nn12 [AZD5153] + CCN(CCO)CCCOc1ccc2c(Nc3cc(CC(=O)Nc4cccc(F)c4)[nH]n3)ncnc2c1 [AZD2811] (first compound max 1 µM, 7x7, partner max 1 µM) | 0.297 | 0.948 | 0.423 | 0.58 | 0.684 | 0.553 | 0.301 | 0.757 | 0.618 | 0.565 | 0.773 | 0.85 | 0.488 | 0.488 | 0.654 | 0.872 | 0.516 | 0.799 | 0.83 | 0.502
COc1nnc2ccc(N3CCC(c4ccc(OCCN5CCN(C)C(=O)[C@H]5C)cc4)CC3)nn12 [AZD5153] + C[C@@H]1COCCN1C2=NC(=NC(=C2)C3(CC3)[S@](=N)(=O)C)C4=C5C=CNC5=NC=C4 [AZD6738] (first compound max 1 µM, 7x7, partner max 10 µM) | 0.55 | 1 | 0.536 | 0.747 | 0.976 | 0.797 | 0.87 | 0.833 | 0.877 | 0.823 | 0.845 | 0.962 | 0.664 | 0.672 | 0.874 | 0.958 | 0.708 | 0.945 | 0.883 | 0.464
COc1nnc2ccc(N3CCC(c4ccc(OCCN5CCN(C)C(=O)[C@H]5C)cc4)CC3)nn12 [AZD5153] + Cc1c2c(nn1C)CSCc1cc(n(C)n1)CSc1cc(c3ccccc3c1)OCCCc1c(C(=O)O)n(C)c3c-2c(Cl)ccc13 [AZD5991] (first compound max 1 µM, 7x7, partner max 1 µM) | 0.544 | 0.98 | 0.484 | 0.985 | 0.523 | 0.67 | 0.24 | 0.822 | 0.654 | 0.717 | 0.778 | 1 | 0.835 | 1 | 0.446 | 0.857 | 0.911 | 0.97 | 0.931 | 0.46
COc1nnc2ccc(N3CCC(c4ccc(OCCN5CCN(C)C(=O)[C@H]5C)cc4)CC3)nn12 [AZD5153] + Cn1cnc2c(F)c(Nc3ccc(Br)cc3Cl)c(C(=O)NOCCO)cc21 [Selumetinib] (first compound max 1 µM, 7x7, partner max 10 µM) | 0.268 | 0.859 | 0.388 | 0.666 | 0.452 | 0.549 | 0.854 | 0.706 | 0.705 | 0.635 | 0.812 | 0.972 | 0.465 | 0.706 | 0.564 | 0.805 | 0.686 | 0.486 | 0.742 | 0.531
Cc1c2c(nn1C)CSCc1cc(n(C)n1)CSc1cc(c3ccccc3c1)OCCCc1c(C(=O)O)n(C)c3c-2c(Cl)ccc13 [AZD5991] + C1CN(CCC1(C(=O)N[C@@H](CCO)C2=CC=C(C=C2)Cl)N)C3=NC=NC4=C3C=CN4 [Capivasertib] (first compound max 1 µM, 7x7, partner max 3 µM) | 0.951 | 0.65 | 0.308 | 0.275 | 0.0638 | 0.599 | 0.192 | 0.299 | 0.196 | 0.347 | 0.728 | 0.466 | 0.774 | 1 | 0.338 | 0.52 | 0.22 | 0.669 | 0.492 | 0.402
Cc1c2c(nn1C)CSCc1cc(n(C)n1)CSc1cc(c3ccccc3c1)OCCCc1c(C(=O)O)n(C)c3c-2c(Cl)ccc13 [AZD5991] + C=CCn1c(=O)c2cnc(Nc3ccc(N4CCN(C)CC4)cc3)nc2n1-c1cccc(C(C)(C)O)n1 [AZD1775] (first compound max 1 µM, partner max 1 µM) | 0.637 | 1 | 0.224 | 0.745 | 0.938 | 0.739 | 0.77 | 0.732 | 0.842 | 0.891 | 0.851 | 0.755 | 0.595 | 0.959 | 0.79 | 0.978 | 0.53 | 0.912 | 0.868 | 0.273
Cc1c2c(nn1C)CSCc1cc(n(C)n1)CSc1cc(c3ccccc3c1)OCCCc1c(C(=O)O)n(C)c3c-2c(Cl)ccc13 [AZD5991] + CC1(C)CCC(CN2CCN(c3ccc(C(=O)NS(=O)(=O)c4ccc(NCC5CCOCC5)c([N+](=O)[O-])c4)c(Oc4cnc5[nH]ccc5c4)c3)CC2)=C(c2ccc(Cl)cc2)C1 [Venetoclax] (first compound max 1 µM, 7x7, partner max 1 µM) | 0.835 | 1 | 0.124 | 0.968 | 0.779 | 0.244 | 0.215 | 0.145 | 0.241 | 0.382 | 0.466 | 0.592 | 0.768 | 0.905 | 0.212 | 0.438 | 0.959 | 0.588 | 0.926 | 0.174
Cc1c2c(nn1C)CSCc1cc(n(C)n1)CSc1cc(c3ccccc3c1)OCCCc1c(C(=O)O)n(C)c3c-2c(Cl)ccc13 [AZD5991] + CCN(CCO)CCCOc1ccc2c(Nc3cc(CC(=O)Nc4cccc(F)c4)[nH]n3)ncnc2c1 [AZD2811] (first compound max 1 µM, 7x7, partner max 1 µM) | 0.584 | 0.875 | 0.147 | 0.933 | 0.389 | 0.381 | 0.361 | 0.35 | 0.345 | 0.489 | 0.91 | 0.62 | 0.517 | 0.899 | 0.619 | 0.764 | 0.913 | 0.663 | 0.96 | 0.231
Cc1c2c(nn1C)CSCc1cc(n(C)n1)CSc1cc(c3ccccc3c1)OCCCc1c(C(=O)O)n(C)c3c-2c(Cl)ccc13 [AZD5991] + C[C@@H]1COCCN1C2=NC(=NC(=C2)C3(CC3)[S@](=N)(=O)C)C4=C5C=CNC5=NC=C4 [AZD6738] (first compound max 1 µM, 7x7, partner max 10 µM) | 0.823 | 1 | 0.632 | 0.906 | 0.96 | 0.741 | 0.822 | 0.604 | 0.858 | 0.686 | 0.798 | 0.924 | 0.774 | 0.997 | 0.854 | 0.973 | 0.536 | 0.939 | 0.862 | 0.428
Cc1c2c(nn1C)CSCc1cc(n(C)n1)CSc1cc(c3ccccc3c1)OCCCc1c(C(=O)O)n(C)c3c-2c(Cl)ccc13 [AZD5991] + C[C@@H](Nc1cc(F)cc(F)c1)c1cc(C(=O)N(C)C)cc2c(=O)cc(N3CCOCC3)oc12 [AZD8186] (first compound max 1 µM, 7x7, partner max 3 µM) | 0.899 | 0.374 | 0.462 | 0.485 | 0.103 | 0.42 | 0.222 | 0.262 | 0.264 | 0.48 | 0.536 | 0.497 | 0.824 | 0.986 | 0.418 | 0.592 | 0.286 | 0.588 | 0.723 | 0.454
Cc1c2c(nn1C)CSCc1cc(n(C)n1)CSc1cc(c3ccccc3c1)OCCCc1c(C(=O)O)n(C)c3c-2c(Cl)ccc13 [AZD5991] + Cc1cc2ncnn2cc1Nc1ncc2c(n1)n(C1CCOCC1)c(=O)n2C [AZD7648] (first compound max 1 µM, 7x7, partner max 10 µM) | 0.654 | 0.556 | 0.177 | 0.346 | 0.332 | 0.315 | 0.29 | 0.456 | 0.313 | 0.489 | 0.52 | 0.265 | 0.701 | 0.952 | 0.418 | 0.533 | 0.358 | 0.478 | 0.461 | 0.298
Cc1c2c(nn1C)CSCc1cc(n(C)n1)CSc1cc(c3ccccc3c1)OCCCc1c(C(=O)O)n(C)c3c-2c(Cl)ccc13 [AZD5991] + Cn1cnc2c(F)c(Nc3ccc(Br)cc3Cl)c(C(=O)NOCCO)cc21 [Selumetinib] (first compound max 1 µM, 7x7, partner max 3 µM) | 0.311 | 0.271 | 0.274 | 0.279 | 0.344 | 0.261 | 0.635 | 0.138 | 0.56 | 0.386 | 0.744 | 0.259 | 0.551 | 0.898 | 0.338 | 0.502 | 0.352 | 0.512 | 0.714 | 0.319
